Assay results published in paper doi:10.1101/2021.01.21.427670v1 (biorxiv, 2021).

How the values were obtained:
[1] = molecular target: T1, α4β1δ GABAA receptor (Homo sapiens, UniProt P18505+P48169, P18505:I289Q); test: cell-based; design: species or system HEK293 Flp-In
[2] = molecular target: T2, α4β1δ GABAA receptor (Homo sapiens, UniProt P18505+P48169); test: cell-based; design: species or system HEK293 Flp-In
[3] = molecular target: T3, α4β1δ GABAA receptor (Homo sapiens, UniProt P18505+P48169, P48169:S303L); test: cell-based; design: species or system HEK293 Flp-In
[4] = molecular target: T3, α4β1δ GABAA receptor; test: FLIPR membrane potential; assay type: cell-based
[5] = molecular target: T1, α4β1δ GABAA receptor; test: FLIPR membrane potential; assay type: cell-based
[6] = molecular target: T2, α4β1δ GABAA receptor; test: FLIPR membrane potential; assay type: cell-based

T3 sequence (P48169 36-554 S303L): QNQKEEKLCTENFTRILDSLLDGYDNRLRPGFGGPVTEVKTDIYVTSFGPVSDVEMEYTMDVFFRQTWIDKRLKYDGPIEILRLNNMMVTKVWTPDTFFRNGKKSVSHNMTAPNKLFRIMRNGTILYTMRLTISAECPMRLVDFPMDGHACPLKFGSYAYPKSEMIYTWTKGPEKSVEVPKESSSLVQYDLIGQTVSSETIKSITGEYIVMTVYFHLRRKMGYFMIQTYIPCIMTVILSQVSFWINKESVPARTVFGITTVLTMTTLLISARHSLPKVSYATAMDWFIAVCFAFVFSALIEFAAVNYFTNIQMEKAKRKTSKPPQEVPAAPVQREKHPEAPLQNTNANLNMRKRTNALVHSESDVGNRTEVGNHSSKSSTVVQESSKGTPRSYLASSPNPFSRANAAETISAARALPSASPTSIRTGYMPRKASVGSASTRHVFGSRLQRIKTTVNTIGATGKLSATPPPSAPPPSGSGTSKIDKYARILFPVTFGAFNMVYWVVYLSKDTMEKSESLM
T3 sequence (P18505 26-474): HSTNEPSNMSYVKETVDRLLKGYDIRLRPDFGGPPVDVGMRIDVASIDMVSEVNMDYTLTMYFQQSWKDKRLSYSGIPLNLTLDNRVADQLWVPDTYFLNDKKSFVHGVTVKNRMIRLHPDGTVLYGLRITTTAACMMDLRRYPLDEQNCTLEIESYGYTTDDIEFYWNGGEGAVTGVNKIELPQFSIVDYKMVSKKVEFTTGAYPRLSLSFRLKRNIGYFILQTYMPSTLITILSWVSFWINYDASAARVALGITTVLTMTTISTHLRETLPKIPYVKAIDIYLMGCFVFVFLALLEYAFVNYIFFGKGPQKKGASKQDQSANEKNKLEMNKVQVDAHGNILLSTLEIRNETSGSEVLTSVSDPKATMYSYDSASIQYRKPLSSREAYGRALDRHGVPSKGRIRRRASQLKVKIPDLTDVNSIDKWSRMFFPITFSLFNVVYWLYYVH
T3 sequence (O14764 25-452 partner): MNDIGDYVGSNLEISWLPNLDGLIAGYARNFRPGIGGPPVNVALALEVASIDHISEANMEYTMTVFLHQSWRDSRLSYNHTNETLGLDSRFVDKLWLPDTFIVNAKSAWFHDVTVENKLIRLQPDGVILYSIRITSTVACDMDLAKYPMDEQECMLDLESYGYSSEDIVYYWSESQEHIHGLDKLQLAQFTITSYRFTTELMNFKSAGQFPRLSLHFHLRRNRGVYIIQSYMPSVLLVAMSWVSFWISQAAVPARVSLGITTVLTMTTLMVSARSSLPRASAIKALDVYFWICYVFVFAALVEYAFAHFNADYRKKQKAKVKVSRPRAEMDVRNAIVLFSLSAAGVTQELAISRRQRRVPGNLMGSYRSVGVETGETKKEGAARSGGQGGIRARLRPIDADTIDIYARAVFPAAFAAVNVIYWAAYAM
T2 sequence (P48169 36-554): as the sequence (P48169 36-554 S303L) above, with L268S counted along it
T2 sequence (P18505 26-474): as the sequence (P18505 26-474) above
T2 sequence (O14764 25-452 partner): as the sequence (O14764 25-452 partner) above
T1 sequence (P48169 36-554): as the sequence (P48169 36-554 S303L) above, with L268S counted along it
T1 sequence (P18505 26-474 I289Q): as the sequence (P18505 26-474) above, with I264Q counted along it
T1 sequence (O14764 25-452 partner): as the sequence (O14764 25-452 partner) above

Row | SMILES | EC50 [1] [µM] | EC50 [2] [µM] | EC50 [3] [µM] | EC50 [4] [µM] | EC50 [5] [µM] | EC50 [6] [µM]
1 | CCOC(=O)Nc1ccc(NCc2c(C)cc(C)cc2C)cc1N [AA29504, [2-amino-4-(2,4,6-trimethylbenzylamino)-phenyl]-carbamic acid ethyl ester] | 0.76 | 0.55 | 0.25 | – | – | –
2 | CCOC(=O)c1cncn1[C@H](C)c1ccccc1 [etomidate, (R)-1-(1-phenylethyl)-1H-imidazole-5-carboxylic acid ethyl ester] | – | – | – | 6.2 | 9.3 | 7.8
